Measurements taken from US20110189174A1, “COMPOSITIONS AND METHODS FOR TREATING, REDUCING, AMELIORATING, ALLEVIATING, OR INHIBITING PROGRESSION OF, PATHOGENIC OCULAR NEOVASCULARIZATION” (priority 2010, published 2011).
“Also recorded” adds a separate entry of the source.

Experiments:
[1] = tested on: human retinal endothelial cells (HREC); test: Testing 4: VEGF-induced HREC proliferation (MTS assay), Avastin with or without BOL-303050-X; format: cell-based; conditions: for HREC proliferation in the presence of VEGF, compound alone: VEGF 10 ng/ml, 3 days
Procedure: HREC were first cultured overnight in a 96-well plate coated with fibronectin. The next day, cells were serum-starved for 2 hours before treatment. […] The cells were then cultured at 37° C., 5% CO2, and 95% humidity for another 3 days.
A 96-well plate was coated with human fibronectin (10 μg/ml) at 37° C. for 5 h. HREC were collected from flasks by EDTA-trypsin treatment and re-suspended in 10% FBS CS-C medium at 18,000 cells/ml. Cells (200 μl/well) were added to the plate and cultured overnight at 37° C., 5% CO2, and 95% humidity. The next day, medium was aspirated and 200 μl/well serum-free medium was added for 2 h at 37° C., 5% CO2, and 95% humidity.
Normal IgG was added in such a way that all groups contained the same amount of IgG proteins. All medium solutions were incubated for 1 h at 37° C., 5% CO2, and 95% humidity. After carefully aspirating the medium from cells, 200 μl of the medium containing different agents were added into appropriate wells. The cells were further cultured for 3 days.
At the end of incubation, the medium was carefully aspirated from cells and 120 μl of MTS working solution was added into all wells including four blank wells (without cells). The plate was incubated at 37° C., 5% CO2, and 95% humidity for 1 hour and then read by a plate reader at 490 nm wavelength.
Median optical density (OD) was generated from different groups. Data were expressed as mean±SEM of the OD values. Statistical analysis was performed using two-way ANOVA followed by the contrast procedure after Box-Cox transformations if needed, and p<0.05 was considered statistically significant. […] All the data from the individual wells were fitted to a re-parameterized four-parameter logistic equation to obtain IC50 using similar methodology as that previously described and utilizing the statistical analysis software JMP (SAS Institute, Cary, N.C.).

[2] = Clinical ophthalmic examination in monkeys (vitreal cell scores, anterior chamber inflammation); format: in vivo, cynomolgus monkeys (Macaca fascicularis); conditions: for Vitreal cell score: number of eyes with grade 0 / Vitreal cell score: number of eyes with grade 1 / Vitreal cell score: number of eyes with grade 2 / Vitreal cell score: number of eyes with grade 3 / Vitreal cell score: number of eyes with grade 4 / Vitreal cell score: number of eyes with grade Trace: intravitreal days 1 and 15, cells not distinguishable from dispersed drug
Procedure: Once the phase Ib study was completed, and it was established that the drug suspension in oil would not interfere with either laser administration, evaluation of CNV or cause adverse effects, phase II was initiated. On days 1, and 15 both eyes of monkeys received 50 μL of Lucentis (0.5 mg/eye), vehicle (0 mg/eye), BOL-303050-X (1.5 mg/eye), BOL-303054-X (1.5 mg/eye) or BOL-303055-X (1.5 mg/eye) (Table 2). Intravitreous injection was performed for each by eye aiming towards mid-vitreous body. Dosing in the right eye was alternated for successive doses (as applicable) at approximately the 11 o'clock and 10 o'clock positions. Dosing in the left eye was alternated for successive doses (as applicable) from approximately the 1 o'clock and 2 o'clock positions.
Animals were examined at baseline, on days 1, 3, 7, 15, and 31 of Dosing Phase II and on the day of scheduled sacrifice (day 38). On days of dose administration the ophthalmic examination was done prior to dosing.

[3] = tested on: laser-induced CNV in rats; test: Laser-induced choroidal neovascularization in rats (CNV area, fluorescein angiography grades); format: in vivo, Brown Norway rats; conditions: day 14, 200 μg/eye (echistatin 5 μg, Avastin 125 μg)
Procedure: Fifty six male Brown Norway rats, approximately 200-300 grams of body weight and two months of age, were used in this study. This study was performed in two cohorts and only one eye of each rat was used.
The pupils were dilated and then the rats were anesthetized as described in baseline examination. The rats were positioned in front of a slit lamp system (Haag-Streit USA, Mason, Ohio). […] A diode laser (OcuLight TX, IRIDEX, Mountain View, Calif.) was used for photocoagulation (532 nm wavelength, 120 mW power, 50 μm spot size and 0.05 seconds duration). For each right eye, a series of six photocoagulation sites were concentrically placed between the major retinal vessels at equal distance (about two optic discs) around the optic nerve head. […] If a significant retinal or subretinal hemorrhage occurred during the laser photocoagulation, then the left eye was be photocoagulated and used as the experimental eye.
Grade 1 lesions had no hyperfluorescence.
The eyes were collected on day 14 and immediately fixed in 4% paraformaldehyde in PBS (pH 7.4) for one and half hours, and then transferred into cold PBS and kept at 4° C. for further processing.
The incubation was performed in a humidified dark chamber with gentle rotation at 4° C. overnight. On the second day, the retinal pigment epithelium (RPE)-choroidsclera complexes were washed with cold IHC buffer, mounted with ProLong® Gold antifade reagent, covered with circular cover glass, and sealed with clear nail polish. Fluorescent images were collected with a confocal microscope (FluoView FV 1000 confocal microscope, Olympus, Center Valley, Pa.) and a 4×, 0.16 numerical aperture objective lens. […] The laser sites were identified by merging images of the green (phalloidin labeling RPE) and the red (isolectin IB4 labeling CNV) channels. CNV complexes were identified using the red channel (isolectin), and their areas were quantified using the FluoView software (Version 1.7a).
Average FA scores and areas of CNV complexes in each group were presented as mean±SEM, unless otherwise indicated. They were analyzed using a one-way ANOVA followed by a Tukey-Kramer test after Box-Cox transformations. All statistics were performed utilizing the statistical analysis software JMP (SAS Institute, Cary, N.C.). p values ≦0.05 were considered statistically significant.

[4] = one intravitreal injection after laser

Vitreal cell score: number of eyes with grade 0 ([2]; Day 3): 8 | Vitreal cell score: number of eyes with grade 1 ([2]; Day 3): 5 | Vitreal cell score: number of eyes with grade 2 ([2]; Day 3): 0 | Vitreal cell score: number of eyes with grade 3 ([2]; Day 3): 0 | Vitreal cell score: number of eyes with grade 4 ([2]; Day 3): 1 | Vitreal cell score: number of eyes with grade Trace ([2]; Day 3): 4 | Vitreal cell score: number of eyes with grade 0 ([2]; Day 7): 1 | Vitreal cell score: number of eyes with grade 1 ([2]; Day 7): 4 | Vitreal cell score: number of eyes with grade 2 ([2]; Day 7): 6 | Vitreal cell score: number of eyes with grade 3 ([2]; Day 7): 2 | Vitreal cell score: number of eyes with grade 4 ([2]; Day 7): 5 | Vitreal cell score: number of eyes with grade Trace ([2]; Day 7): 0 | Vitreal cell score: number of eyes with grade 0 ([2]; Day 15): 1 | Vitreal cell score: number of eyes with grade 1 ([2]; Day 15): 8 | Vitreal cell score: number of eyes with grade 2 ([2]; Day 15): 2 | Vitreal cell score: number of eyes with grade 3 ([2]; Day 15): 1 | Vitreal cell score: number of eyes with grade 4 ([2]; Day 15): 4 | Vitreal cell score: number of eyes with grade Trace ([2]; Day 15): 2 | Vitreal cell score: number of eyes with grade 0 ([2]; Day 31): 0 | Vitreal cell score: number of eyes with grade 1 ([2]; Day 31): 2 | Vitreal cell score: number of eyes with grade 2 ([2]; Day 31): 1 | Vitreal cell score: number of eyes with grade 3 ([2]; Day 31): 1 | Vitreal cell score: number of eyes with grade 4 ([2]; Day 31): 11 | Vitreal cell score: number of eyes with grade Trace ([2]; Day 31): 0 | Vitreal cell score: number of eyes with grade 0 ([2]; Day 38): 0 | Vitreal cell score: number of eyes with grade 1 ([2]; Day 38): 1 | Vitreal cell score: number of eyes with grade 2 ([2]; Day 38): 0 | Vitreal cell score: number of eyes with grade 3 ([2]; Day 38): 3 | Vitreal cell score: number of eyes with grade 4 ([2]; Day 38): 12 | Vitreal cell score: number of eyes with grade Trace ([2]; Day 38): 0
Compound: COc1ccc(S(=O)(=O)N[C@@H](CNc2nc(C)nc(N3CCC(c4ccc5c(n4)NCCC5)CC3)c2C)C(=O)O)cc1 [BOL-303050-X]
HREC proliferation in the presence of VEGF, compound alone ([1]; 1 nM): significantly reduced | HREC proliferation in the presence of VEGF, compound alone ([1]; 10 nM): significantly reduced | HREC proliferation under basal conditions ([1]; 1 and 10 nM tested, no VEGF): significant effects were only observed at 10 nM | Combination effect with Avastin on VEGF-induced HREC proliferation (synergistic/additive) ([1]; compound 1 nM, Avastin 30 to 300 ng/ml): synergistic effects | Combination effect with Avastin on VEGF-induced HREC proliferation (synergistic/additive) ([1]; compound 10 nM, Avastin at all doses): additive effect | Improvement of the potency of Avastin ([1]; compound at 1 and 10 nM): 6- to 7 fold | Drug-related ocular findings ([2]; oil formulation, 1.5 mg/eye intravitreal): No drug-related ocular findings were reported | CNV area / development of CNV on isolectin IB4-labeled flat mounts compared to vehicle-treated controls [3, 4]: completely inhibited in a small portion of lesions; also recorded: smaller area of CNV | Mean score of fluorescein leakage (FA score) compared to vehicle-treated controls [3, 4]: smaller means | Number of lesions in FA grade 1 ([3]; unobstructed lesions): 6 | Number of lesions in FA grade 2 ([3]; unobstructed lesions): 12 | Number of lesions in FA grade 3 ([3]; unobstructed lesions): 4 | Number of lesions in FA grade 4 ([3]; unobstructed lesions): 2
